Drawing on patent US6448260B2, “Endothelin receptor antagonists” (SmithKline Beecham Corporation, priority 1991, dated 2002), this text covers melting point for 30 compounds.

Where a name gives a salt, the structure may show the parent alone.

As to `CCCOc1ccc2c(c1)[C@H](c1ccc(OC(C)C)cc1OCC(=O)O)[C@H](C(=O)O)[C@@H]2c1ccc2c(c1)OCO2` (racemic) [Example 95, (1RS, 2RS, 3RS)-3-(2-Carboxymethoxy-4-isopropyloxyphenyl)-1-(3,4-methylenedioxyphenyl)-5-(prop-1-yloxy)indane-2-carboxylic acid], the melting point was 183 to 185 °C.

On to `C=CCCOc1ccc2c(c1)[C@@H](c1ccc(OC)cc1)[C@H](C(=O)O)[C@@H]2c1ccc2c(c1)OCO2` (racemic) [Example 106, (1RS, 2SR, 3RS)-5-(3-Buten-1-yloxy)-3-(4-methoxyphenyl)-1-(3,4-methylenedioxyphenyl)indane-2-carboxylic acid], for which the melting point lay within 127 to 129 °C.

For the compound `CCCOc1ccc2c(c1)[C@H](c1ccccc1OCC(=O)O)[C@@H](C(=O)O)[C@@H]2c1ccc2c(c1)OCO2` (racemic) [Example 37, (1 RS, 2SR, 3RS)-3-(2-Carboxymethoxyphenyl)-1-(3,4-methylenedioxyphenyl)-5-(prop-1-yloxy)indane-2-carboxylic acid], the melting point lay in the range of 169 to 170 °C.

Take `COc1ccc([C@H]2c3cc(OC)ccc3[C@@H](c3ccc4c(c3)OCO4)[C@H]2C(=O)O)cc1` (racemic) [Example 28, (1RS, 2SR, 3SR)-5-Methoxy-3-(4-methoxyphenyl)-1-(3,4-methylenedioxyphenyl)indane-2-carboxylic acid]: the melting point lay in the range of 129 to 131 °C.

For the compound `COc1cccc([C@@H]2c3ccccc3[C@H](c3ccc4c(c3)OCO4)[C@H]2C(=O)O)c1` (racemic) [Example 5, (1RS, 2SR, 3SR)-1-(3-Methoxyphenyl)-3-(3,4-methylenedioxyphenyl)indane-2-carboxylic acid], the melting point was 131 to 133 °C.

The compound `C=CCOc1cc(OC)ccc1[C@H]1c2cc(OCCC)ccc2[C@@H](c2ccc3c(c2)OCO3)[C@@H]1C(=O)O` (racemic) [Example 100, (1RS, 2SR, 3RS)-1-(3,4-Methylenedioxyphenyl)-3-[4methoxy-2-(2-propen-1-yloxy)phenyl]-5-(prop-1-yloxy)indane-2-carboxylic acid] came in with a melting point of 168 to 170 °C.

Take `COc1ccc([C@@H]2c3ccccc3[C@H](c3ccccc3)[C@H]2C(=O)O)cc1` (racemic) [Example 1, (1RS,2RS,3SR)-1-(4-Methoxyphenyl)-3-phenylindane-2-carboxylic acid]: the melting point was in the range of 164 to 166 °C.

As for `CCCOc1ccc2c(c1)[C@H](c1ccc(OC)cc1Oc1ncccc1C(=O)O)[C@@H](C(=O)O)[C@@H]2c1ccc2c(c1)OCO2` (racemic) [Example 98, (1RS, 2SR, 3RS)-3-[2-[(3-Carboxypyridin-2-yl)oxy]-4-methoxyphenyl]-1-(3,4-methylenedioxyphenyl)-5-(prop-1-yloxy) indane-2-carboxylic acid], the melting point was in the range of 152 to 155 °C.

Turning to `COc1ccc(C2C(C(=O)O)=C(c3ccccc3)c3ccccc32)cc1` (racemic) [Example 15, (1RS)-1-(4-Methoxyphenyl)-3-phenylindene-2-carboxylic acid], the melting point lay within 191 to 193 °C.

Turning to `COc1ccc([C@@H]2c3ccccc3[C@H](c3ccc4c(c3)OCO4)[C@H]2c2nnn[nH]2)cc1` (racemic) (hydrate or solvate) [Example 9, (1RS, 2SR, 3SR)-1-(4-Methoxyphenyl)-3-(3,4-methylenedioxyphenyl)-2-(tetrazol-5-yl)indane], the melting point lay in the range of 155 to 157 °C.

Consider `O=C(O)[C@H]1[C@H](c2ccc(O)cc2)c2ccccc2[C@@H]1c1ccc2c(c1)OCO2` (racemic) [Example 25, (1RS, 2SR, 3SR)-1-(4-Hydroxyphenyl)-3-(3,4-methylenedioxyphenyl)indane-2-carboxylic acid], for which the melting point was 94 to 96 °C.

`CCCOc1ccc2c(c1)[C@H](c1ccc(OC)cc1OC(C)C)[C@@H](C(=O)O)[C@@H]2c1ccc2c(c1)OCO2` (racemic) [Example 42, (1RS, 2SR, 3RS)-3-[4-Methoxy-2-(prop-2-yloxy)phenyl]-1-(3,4-methylenedioxyphenyl)-5-(prop-1-yloxy)indane-2-carboxylic acid] gave a melting point of 75 to 79 °C.

Compound `CCOc1ccc([C@@H]2c3ccccc3[C@H](c3ccc4c(c3)OCO4)[C@H]2C(=O)O)cc1` (racemic) [Example 73, (1RS, 2SR, 3SR)-1-(4-Ethoxyphenyl)-3-(3,4-methylenedioxyphenyl)indane-2-carboxylic acid] registered a melting point of 169 to 170 °C.

In the case of `COc1ccc([C@H]2c3ccccc3[C@@H](c3ccc(NC(C)=O)cc3)[C@H]2C(=O)O)cc1` (racemic) [Example 23, (1RS, 2RS, 3SR)-1-(4-Acetamidophenyl)-3-(4-methoxyphenyl)indane-2-carboxylic acid], the melting point is 231 to 232 °C.

`C=CCc1cc(OC)ccc1[C@H]1c2cc(OCCC)ccc2[C@@H](c2ccc3c(c2)OCO3)[C@@H]1C(=O)O` (racemic) [Example 60, (1RS, 2SR, 3SR)-3-[4-Methoxy-2-(prop-2-en-1-yl)phenyl]-1-(3,4-methylenedioxyphenyl)-5-(prop-1-yloxy)indane-2-carboxylic acid]: the melting point lay within 126 to 127 °C.

`CCCOc1ccc2c(c1)[C@H](c1ccc(OC)cc1CCC)[C@@H](C(=O)O)[C@@H]2c1ccc2c(c1)OCO2` (racemic) [Example 61, (1RS, 2SR, 3SR)-3-[4-Methoxy-2-(prop-1-yl)phenyl]-1-(3,4-methylenedioxyphenyl)-5-(prop-1-yloxy)indane-2-carboxylic acid] came in with a melting point of 155 to 156 °C.

Take `O=C(O)[C@H]1[C@H](c2ccc(F)cc2)c2ccccc2[C@@H]1c1ccc2c(c1)OCO2` (racemic) [Example 4, (1RS, 2SR, 3SR)-1-(4-Fluorophenyl)-3-(3,4-methylenedioxyphenyl)indane-2-carboxylic acid]: the melting point was in the range of 146 to 149 °C.

In the case of `CCCOc1ccc2c(c1)[C@H](c1ccc(OCC)cc1OCC(=O)O)[C@@H](C(=O)O)[C@@H]2c1ccc2c(c1)OCO2` (racemic) [Example 96, (1RS, 2SR, 3RS)-3-(2-Carboxymethoxy-4-ethyloxyphenyl)-1-(3,4-methylenedioxyphenyl)-5-(prop-1-yloxy)indane-2-carboxylic acid], the melting point was in the range of 194 to 196 °C.

Take `CCCOc1ccc2c(c1)[C@H](c1ccc(OC)cc1OCC(=O)[O-])[C@@H](C(=O)O[C@@H](C)OC(=O)C(C)(C)OC)[C@@H]2c1ccc2c(c1)OCO2.[Na+]` (racemic): the melting point is 178 to 181 °C (dec.).

With `O=C(O)[C@H]1[C@H](c2ccc3c(c2)OCO3)c2ccc(O)cc2[C@@H]1c1ccc(OC(F)(F)F)cc1` (racemic) [Example 108, (1RS, 2RS, 3SR)-5-Hydroxy-1-(3,4-methylenedioxyphenyl)-3-(4-trifluoromethoxyphenyl)indane-2-carboxylic acid], the melting point lay within 100 to 104 °C.

The compound `CCCOc1ccc2c(c1)[C@H](c1ccc(OC)cc1OCC(C)C)[C@@H](C(=O)O)[C@@H]2c1ccc2c(c1)OCO2` (racemic) [Example 43, (1RS, 2SR, 3RS)-3-[4-Methoxy-2-(2-methylprop-1-yloxy)phenyl]-1-(3,4-methylenedioxyphenyl)-5-(prop-1-yloxy)indane-2-carboxylic acid] showed a melting point of 85 to 89 °C.

As to `CCc1ccc([C@@H]2c3ccccc3[C@H](c3ccccc3)[C@H]2C(=O)O)cc1` (racemic) [Example 20, (1RS, 2RS, 3SR)-1-(4-Ethylphenyl)-3-phenylindane-2-carboxylic acid], the melting point lay within 163 to 164 °C.

`CCCOc1ccc2c(c1)[C@H](c1ccc(OC)cc1-c1ccccc1)[C@@H](C(=O)O)[C@@H]2c1ccc2c(c1)OCO2` (racemic) [Example 56, (1RS, 2SR, 3RS)-3-(4-Methoxy-2-phenylphenyl)-1-(3,4-methylenedioxyphenyl)-5-(prop-1-yloxy)indane-2-carboxylic acid] came in with a melting point of 199 to 200 °C.

As for `COc1ccc([C@@H]2c3cc(O)ccc3[C@H](c3c[nH]c4ccccc34)[C@H]2C(=O)O)cc1` (racemic) [Example 109, (1RS, 2SR, 3RS)-5-Hydroxy-1-(3-indolyl)-3-(4-methoxyphenyl)indane-2-carboxylic acid], the melting point lay in the range of 138 to 140 °C.

The compound `COc1ccc([C@@H]2c3ccccc3[C@H](c3cc(OC)c(OC)c(OC)c3)[C@H]2C(=O)O)cc1` (racemic) [Example 72, (1RS, 2SR, 3S R)-1-(4-Methoxyphenyl)-3-(3,4,5-trimethoxyphenyl)indane-2-carboxylic acid] came in with a melting point of 197 to 198 °C.

Regarding `COc1ccc([C@H]2c3cc(O)ccc3[C@@H](c3ccc4c(c3)OCO4)[C@@H]2C(=O)O)c(OC)c1` (racemic) [Example 76, (1RS, 2SR, 3RS)-3-(2,4-Dimethoxyphenyl)-5-hydroxy-1-(3,4-methylenedioxyphenyl)indane-2-carboxylic acid], the melting point was in the range of 110 to 113 °C.

Turning to `O=C(O)C1[C@H](c2ccccc2)c2ccccc2[C@H]1c1ccccc1` (racemic) (as salt: sodium) [Example 21, (1RS, 3RS)-1,3-Diphenylindane-2-carboxylic acid], the melting point was 220 to 222 °C (dec.).

With `COc1cc(OC)c([C@H]2c3ccc(O)cc3[C@@H](c3ccc4c(c3)OCO4)[C@@H]2C(=O)O)c(OC)c1` (racemic) [Example 78, (1RS, 2SR, 3RS)-5-Hydroxy-3-(3,4-methylenedioxyphenyl)-1-(2,4,6-trimethoxyphenyl)indane-2-carboxylic acid], the melting point fell in the range of 225 to 226 °C.

The compound `CCCCc1ccc2c(c1)[C@H](c1ccc(OC)cc1OCC(=O)O)[C@@H](C(=O)O)[C@@H]2c1ccc2c(c1)OCO2` (racemic) [Example 89, (1RS, 2SR, 3RS)-5-Butyl-3-(2-carboxymethoxy-4-methoxyphenyl)-1-(3,4-methylenedioxyphenyl) indane-2-carboxylic acid] gave a melting point of 176 to 177 °C.

With `CCCOc1ccc2c(c1)[C@H](c1ccccc1OCCC)[C@@H](C(=O)O)[C@@H]2c1ccc2c(c1)OCO2` (racemic) [Example 35, (1RS, 2SR, 3RS)-1-(3,4-Methylenedioxyphenyl)-3-[2-(prop-1-yloxy)phenyl]-5-(prop-1-yloxy)indane-2-carboxylic acid], the melting point lay within 179 to 180 °C.

Usually melting point stands for the temperature of the solid-liquid transition.
